Tests used:
bedstraw = experiment: Test B pre/postemergence bedstraw; format: in vivo, Galium aparine; settings: for Plant response rating, Bedstraw: Postemergence
How it was run: (§1)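 Test chemicals in a non-phytotoxic solvent mixture with surfactant were sprayed preemergence onto planted seeds and postemergence onto plants 2 to 18 cm tall (1- to 4-leaf stage). After twelve to sixteen days in a greenhouse, injury was visually rated against untreated controls from 0 (no effect) to 10 (complete control).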

blackgrass = experiment: Test B pre/postemergence blackgrass; format: in vivo, Alopecurus myosuroides
How it was run: as §1

surinam grass = experiment: Test B pre/postemergence surinam grass; format: in vivo, Brachiaria decumbens
How it was run: as §1

cocklebur = experiment: Test B pre/postemergence cocklebur; format: in vivo, Xanthium strumarium
How it was run: as §1

corn = experiment: Test B pre/postemergence corn; format: in vivo, Zea mays
How it was run: as §1

crabgrass = experiment: Test B pre/postemergence crabgrass; format: in vivo, Digitaria sanguinalis
How it was run: as §1

giant foxtail = experiment: Test B pre/postemergence giant foxtail; format: in vivo, Setaria faberii
How it was run: as §1

morningglory = experiment: Test B pre/postemergence morningglory; format: in vivo, Ipomoea hederacea
How it was run: as §1

pigweed = experiment: Test B pre/postemergence pigweed; format: in vivo, Amaranthus retroflexus; settings: for Plant response rating, Redroot pigweed: Postemergence
How it was run: as §1

rape = experiment: Test B pre/postemergence rape; format: in vivo, Brassica napus
How it was run: as §1

soybean = experiment: Test B pre/postemergence soybean; format: in vivo, Glycine max; settings: for Plant response rating, Soybean: Postemergence
How it was run: as §1

sugar beet = experiment: Test B pre/postemergence sugar beet; format: in vivo, Beta vulgaris; settings: for Plant response rating, Sugarbeets: Postemergence
How it was run: as §1

velvetleaf = experiment: Test B pre/postemergence velvetleaf; format: in vivo, Abutilon theophrasti; settings: for Plant response rating, Velvetleaf: Postemergence
How it was run: as §1

wheat = experiment: Test B pre/postemergence wheat; format: in vivo, Triticum aestivum; settings: for Plant response rating, Wheat: Postemergence
How it was run: as §1

wild oat = experiment: Test B pre/postemergence wild oat; format: in vivo, Avena fatua; settings: for Plant response rating, Wild oats: Postemergence
How it was run: as §1

purple nutsedge = experiment: Test B pre/postemergence purple nutsedge; format: in vivo, Cyperus rotundus
How it was run: as §1

[1] = Rate 125 g/ha, scale of 0 to 10 where 0 is no effect and 10 is complete control
[2] = Preemergence, Rate 62 g/ha, scale 0 to 10 (0 no effect, 10 complete control)
[3] = Preemergence, Rate 125 g/ha, scale of 0 to 10 where 0 is no effect and 10 is complete control
[4] = Preemergence, Rate 500 g/ha, scale of 0 to 10 where 0 is no effect and 10 is complete control
[5] = Rate 250 g/ha, scale of 0 to 10 where 0 is no effect and 10 is complete control
[6] = Postemergence, Rate 62 g/ha, scale of 0 to 10, 0 is no effect, 10 is complete control
[7] = Postemergence, Rate 500 g/ha, scale of 0 to 10 where 0 is no effect and 10 is complete control
[8] = Rate 250 g/ha, Postemergence, scale of 0 to 10 where 0 is no effect and 10 is complete control
[9] = Postemergence, Rate 125 g/ha, scale of 0 to 10 where 0 is no effect and 10 is complete control
[10] = Rate 500 g/ha, scale of 0 to 10 where 0 is no effect and 10 is complete control

CCC=CCn1c(=O)on(C(=O)N(c2ccccc2)C(C)C)c1=O [Compound 582]
Plant response rating, Bedstraw (bedstraw; [1]): 7
Bedstraw plant response rating (bedstraw; [2]): 0
Bedstraw plant response rating (bedstraw; [3]): 0
Bedstraw plant response rating (0 to 10 scale) (bedstraw; Preemergence, Rate 250 g/ha): 6
Bedstraw plant response rating (bedstraw; [4]): 6
Plant response rating, Bedstraw (bedstraw; [5]): 9
Blackgrass plant response rating (blackgrass; [6]): 3
Plant response rating, Blackgrass (blackgrass; [7]): 7
Blackgrass plant response rating (blackgrass; [2]): 0
Blackgrass plant response rating (blackgrass; [3]): 0
Blackgrass plant response rating (0 to 10 scale) (blackgrass; Preemergence, Rate 250 g/ha): 0
Blackgrass plant response rating (blackgrass; [4]): 0
Plant response rating, Blackgrass (blackgrass; [8]): 3
B. signalgrass plant response rating (surinam grass; [6]): 0
Plant response rating, B. signalgrass (surinam grass; [9]): 0
Plant response rating, B. signalgrass (surinam grass; [7]): 3
B. signalgrass plant response rating (surinam grass; [2]): 0
B. signalgrass plant response rating (surinam grass; [3]): 0
B. signalgrass plant response rating (0 to 10 scale, 0 is no effect, 10 is complete control) (surinam grass; Preemergence, Rate 250 g/ha): 2
B. signalgrass plant response rating (surinam grass; [4]): 4
Plant response rating, B. signalgrass (surinam grass; [8]): 0
Cocklebur plant response rating (cocklebur; [6]): 0
Plant response rating, Cocklebur (cocklebur; [9]): 0
Plant response rating, Cocklebur (cocklebur; [7]): 4
Cocklebur plant response rating (cocklebur; [2]): 0
Cocklebur plant response rating (cocklebur; [3]): 0
Cocklebur plant response rating (0 to 10 scale) (cocklebur; Preemergence, Rate 250 g/ha): 0
Cocklebur plant response rating (cocklebur; [4]): 0
Plant response rating, Cocklebur (cocklebur; [8]): 2
Corn plant response rating (corn; [6]): 0
Plant response rating, Corn (corn; [9]): 0
Plant response rating, Corn (corn; [7]): 0
Corn plant response rating (corn; [2]): 0
Corn plant response rating (corn; [3]): 0
Corn plant response rating (0 to 10 scale) (corn; Preemergence, Rate 250 g/ha): 0
Corn plant response rating (corn; [4]): 0
Plant response rating, Corn (corn; [8]): 0
Crabgrass plant response rating (crabgrass; [6]): 0
Plant response rating, Crabgrass (crabgrass; [9]): 0
Plant response rating, Crabgrass (crabgrass; [7]): 3
Crabgrass plant response rating (crabgrass; [2]): 0
Crabgrass plant response rating (crabgrass; [3]): 0
Crabgrass plant response rating (0 to 10 scale) (crabgrass; Preemergence, Rate 250 g/ha): 0
Crabgrass plant response rating (crabgrass; [4]): 7
Plant response rating, Crabgrass (crabgrass; [8]): 3
Giant foxtail plant response rating (giant foxtail; [6]): 3
Plant response rating, Giant foxtail (giant foxtail; [9]): 4
Plant response rating, Giant foxtail (giant foxtail; [7]): 7
Giant foxtail plant response rating (giant foxtail; [2]): 0
Giant foxtail plant response rating (giant foxtail; [3]): 5
Giant foxtail plant response rating (0 to 10 scale) (giant foxtail; Preemergence, Rate 250 g/ha): 8
Giant foxtail plant response rating (giant foxtail; [4]): 8
Plant response rating, Giant foxtail (giant foxtail; [8]): 9
Morningglory plant response rating (morningglory; [6]): 9
Plant response rating, Morningglory (morningglory; [9]): 10
Plant response rating, Morningglory (morningglory; [7]): 10
Morningglory plant response rating (morningglory; [2]): 0
Morningglory plant response rating (morningglory; [3]): 0
Morningglory plant response rating (0 to 10 scale) (morningglory; Preemergence, Rate 250 g/ha): 0
Morningglory plant response rating (morningglory; [4]): 2
Plant response rating, Morningglory (morningglory; [8]): 10
Plant response rating, Redroot pigweed (pigweed; [1]): 0
Plant response rating, Redroot pigweed (pigweed; [10]): 7
Redroot pigweed plant response rating (pigweed; [2]): 0
Redroot pigweed plant response rating (pigweed; [3]): 0
Redroot pigweed plant response rating (0 to 10 scale) (pigweed; Preemergence, Rate 250 g/ha): 4
Redroot pigweed plant response rating (pigweed; [4]): 9
Plant response rating, Redroot pigweed (pigweed; [5]): 7
Rape plant response rating (rape; [6]): 0
Plant response rating, Rape (rape; [9]): 0
Plant response rating, Rape (rape; [7]): 3
Rape plant response rating (rape; [2]): 0
Rape plant response rating (rape; [3]): 0
Rape plant response rating (0 to 10 scale) (rape; Preemergence, Rate 250 g/ha): 0
Rape plant response rating (rape; [4]): 3
Plant response rating, Rape (rape; [8]): 0
Plant response rating, Soybean (soybean; [1]): 3
Plant response rating, Soybean (soybean; [10]): 3
Soybean plant response rating (soybean; [2]): 0
Soybean plant response rating (soybean; [3]): 0
Soybean plant response rating (0 to 10 scale) (soybean; Preemergence, Rate 250 g/ha): 0
Soybean plant response rating (soybean; [4]): 0
Plant response rating, Soybean (soybean; [5]): 3
Plant response rating, Sugarbeets (sugar beet; [1]): 0
Plant response rating, Sugarbeets (sugar beet; [10]): 7
Sugarbeets plant response rating (sugar beet; [2]): 0
Sugarbeets plant response rating (sugar beet; [3]): 0
Sugarbeets plant response rating (0 to 10 scale) (sugar beet; Preemergence, Rate 250 g/ha): 0
Sugarbeets plant response rating (sugar beet; [4]): 0
Plant response rating, Sugarbeets (sugar beet; [5]): 3
Plant response rating, Velvetleaf (velvetleaf; [1]): 0
Plant response rating, Velvetleaf (velvetleaf; [10]): 0
Velvetleaf plant response rating (velvetleaf; [2]): 0
Velvetleaf plant response rating (velvetleaf; [3]): 0
Velvetleaf plant response rating (0 to 10 scale) (velvetleaf; Preemergence, Rate 250 g/ha): 4
Velvetleaf plant response rating (velvetleaf; [4]): 4
Plant response rating, Velvetleaf (velvetleaf; [5]): 0
Plant response rating, Wheat (wheat; [1]): 0
Plant response rating, Wheat (wheat; [10]): 0
Wheat plant response rating (wheat; [2]): 0
Wheat plant response rating (wheat; [3]): 0
Wheat plant response rating (0 to 10 scale) (wheat; Preemergence, Rate 250 g/ha): 0
Wheat plant response rating (wheat; [4]): 0
Plant response rating, Wheat (wheat; [5]): 0
Plant response rating, Wild oats (wild oat; [1]): 0
Plant response rating, Wild oats (wild oat; [10]): 3
Wild oats plant response rating (wild oat; [2]): 0
Wild oats plant response rating (wild oat; [3]): 0
Wild oats plant response rating (0 to 10 scale) (wild oat; Preemergence, Rate 250 g/ha): 0
Wild oats plant response rating (wild oat; [4]): 0
Plant response rating, Wild oats (wild oat; [5]): 0
Nutsedge plant response rating (purple nutsedge; [6]): 0
Plant response rating, Nutsedge (purple nutsedge; [9]): 0
Plant response rating, Nutsedge (purple nutsedge; [7]): 0
Nutsedge plant response rating (purple nutsedge; [2]): 0
Nutsedge plant response rating (purple nutsedge; [3]): 0
Nutsedge plant response rating (0 to 10 scale) (purple nutsedge; Preemergence, Rate 250 g/ha): 0
Nutsedge plant response rating (purple nutsedge; [4]): 0

From patent publication US6737383B1, “Herbicidal oxadiazolidines” (priority 1999, dated 2004)
